Source: ChEMBL document CHEMBL1201862, “PubChem BioAssay data set” (2004)
Activity calls are given as the source filed them.

Key:
[1] = tested on: Streptococcus sp. 'group A'; test: growth inhibition of control SK(-) GAS strain, dose response, counter-screen for streptokinase expression inhibitor project, luminescence, kanamycin, BacTiterGlo, confirmation (AID 1900); assay type: functional, organism-based
Streptokinase A = biological target: T1, Streptokinase A (Streptococcus pyogenes serotype M1, UniProt P10520); test: S. pyogenes streptokinase expression inhibitors, potency, dose response, plasminogen activation absorbance, OD405 (AID 1914); assay type: functional, Streptococcus pyogenes M1 GAS;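 note: secreted streptokinase activity via plasminogen activation per viability signal from cell pellet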
T1 sequence (P10520 whole entry): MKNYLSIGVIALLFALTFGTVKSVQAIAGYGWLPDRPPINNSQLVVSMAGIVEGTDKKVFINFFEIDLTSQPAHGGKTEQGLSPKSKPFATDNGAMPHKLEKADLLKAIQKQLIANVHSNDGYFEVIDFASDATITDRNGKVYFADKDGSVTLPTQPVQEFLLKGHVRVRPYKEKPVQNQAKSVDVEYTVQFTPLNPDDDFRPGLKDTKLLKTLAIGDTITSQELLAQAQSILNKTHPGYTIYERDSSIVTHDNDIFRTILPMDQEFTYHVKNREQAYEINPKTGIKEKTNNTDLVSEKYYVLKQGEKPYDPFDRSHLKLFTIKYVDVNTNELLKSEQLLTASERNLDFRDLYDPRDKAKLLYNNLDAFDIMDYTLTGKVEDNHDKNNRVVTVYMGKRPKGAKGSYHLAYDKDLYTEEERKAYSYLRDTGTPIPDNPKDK

Streptococcus = test: Group A Streptococcus viability loss, dose response, counter-screen for streptokinase expression inhibitor project, luminescence, BacTiterGlo (AID 1915); assay type: functional, organism-based;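 note: potency for reduction of bacterial viability or growth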
Vero = Vero cell cytotoxicity, cytotoxicity control for flavivirus capping enzyme inhibitors (AID 588742); assay type: functional; conditions: Chlorocebus sabaeus
Genome polyprotein = Genome polyprotein (dengue virus type 2, UniProt P29990); test: Dengue-2 NS5 methyltransferase inhibitors, primary screen, biochemical, confirmation dose response (AID 588689); assay type: functional
[2] = AlphaScreen signal interference compounds, dose response, artefact control for ARNT-TACC3 interaction inhibitor project, biochemical, luminescence, cherry-pick (AID 651705); assay type: functional;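 note: AlphaScreen bead proximity signal that flags compounds interfering with the detection technology; potency reflects signal decrease which marks the compound as an assay artifact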
[3] = ARNT/TACC3 interaction disruptors, potency, confirmation, biochemical, AlphaScreen, cherry-picked samples (AID 651703); assay type: functional, Homo sapiens;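 note: His-tagged ARNT PAS-B domain paired with GST-TACC3 E629A dimer coactivator fragment; potency of inhibitors that break up the complex and lower AlphaScreen signal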
[4] = biological target: DNA dC->dU-editing enzyme APOBEC-3A (Homo sapiens, UniProt P31941); test: APOBEC3A DNA deaminase inhibitors, dose response, biochemical (AID 504722); assay type: functional
[5] = biological target: DNA dC->dU-editing enzyme APOBEC-3G (Homo sapiens, UniProt Q9HC16); test: Dose Response confirmation of small molecule APOBEC3G DNA Deaminase Inhibitors via a fluorescence-based single-stranded DNA deaminase assay. [Related pubchem assays (depositor defined):AID493012, AID493028]; assay type: functional
[6] = biological target: T2, Tyrosine-protein phosphatase non-receptor type 11 (Homo sapiens, UniProt Q06124); test: SHP2 phosphatase inhibition, dose response, selectivity assay for STEP inhibitor project, biochemical (AID 602367); assay type: functional; conditions: read-out: IC50_Mean
T2 sequence (Q06124 whole entry): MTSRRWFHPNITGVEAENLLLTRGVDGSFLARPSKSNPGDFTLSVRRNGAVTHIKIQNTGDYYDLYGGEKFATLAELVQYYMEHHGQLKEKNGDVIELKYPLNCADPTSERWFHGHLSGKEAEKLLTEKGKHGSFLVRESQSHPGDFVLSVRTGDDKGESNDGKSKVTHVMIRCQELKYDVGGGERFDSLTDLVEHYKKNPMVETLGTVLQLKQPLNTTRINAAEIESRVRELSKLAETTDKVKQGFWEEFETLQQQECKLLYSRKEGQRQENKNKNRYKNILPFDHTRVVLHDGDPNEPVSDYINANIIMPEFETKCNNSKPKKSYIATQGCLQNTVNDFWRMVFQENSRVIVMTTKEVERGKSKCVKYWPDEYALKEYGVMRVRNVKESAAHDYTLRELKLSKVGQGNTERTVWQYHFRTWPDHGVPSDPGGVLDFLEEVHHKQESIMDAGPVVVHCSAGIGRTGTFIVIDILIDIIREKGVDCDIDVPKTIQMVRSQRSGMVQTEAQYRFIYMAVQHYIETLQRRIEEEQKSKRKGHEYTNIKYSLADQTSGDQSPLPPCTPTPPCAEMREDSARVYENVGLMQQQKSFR

[7] = biological target: T3, Tyrosine-protein phosphatase non-receptor type 5 (Homo sapiens, UniProt P54829); test: STEP phosphatase inhibitors, confirmation, biochemical, fluorescence intensity, uHTS hits (AID 602372); assay type: functional; conditions: read-out: IC50_Mean
T3 sequence (P54829 whole entry): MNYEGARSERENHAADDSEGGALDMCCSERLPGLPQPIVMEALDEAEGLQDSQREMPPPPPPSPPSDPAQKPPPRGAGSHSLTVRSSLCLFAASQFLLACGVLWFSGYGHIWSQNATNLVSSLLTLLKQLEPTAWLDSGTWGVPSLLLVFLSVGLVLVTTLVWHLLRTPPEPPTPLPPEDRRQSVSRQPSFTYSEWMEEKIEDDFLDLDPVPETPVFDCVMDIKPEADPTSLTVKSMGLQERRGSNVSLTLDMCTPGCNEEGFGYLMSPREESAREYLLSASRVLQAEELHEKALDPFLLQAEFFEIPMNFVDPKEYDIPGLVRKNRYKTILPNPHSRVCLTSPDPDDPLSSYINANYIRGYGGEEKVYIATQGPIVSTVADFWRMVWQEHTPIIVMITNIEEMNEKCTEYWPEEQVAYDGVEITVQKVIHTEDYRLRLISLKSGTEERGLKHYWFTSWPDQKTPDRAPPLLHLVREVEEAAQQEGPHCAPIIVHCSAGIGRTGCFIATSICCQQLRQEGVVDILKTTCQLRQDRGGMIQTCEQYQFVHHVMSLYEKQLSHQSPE

[8] = biological target: Dual specificity protein phosphatase 3 (Homo sapiens, UniProt P51452); test: VHR phosphatase inhibition, dose response, selectivity assay for STEP inhibitor project, biochemical (AID 602374); assay type: functional; conditions: read-out: IC50_Mean
[9] = biological target: T4, Tyrosine-protein phosphatase non-receptor type 22 (Homo sapiens, UniProt Q9Y2R2); test: PTPN22 phosphatase inhibition, dose response, selectivity assay for STEP inhibitor project, biochemical (AID 624241); assay type: functional
T4 sequence (Q9Y2R2 whole entry): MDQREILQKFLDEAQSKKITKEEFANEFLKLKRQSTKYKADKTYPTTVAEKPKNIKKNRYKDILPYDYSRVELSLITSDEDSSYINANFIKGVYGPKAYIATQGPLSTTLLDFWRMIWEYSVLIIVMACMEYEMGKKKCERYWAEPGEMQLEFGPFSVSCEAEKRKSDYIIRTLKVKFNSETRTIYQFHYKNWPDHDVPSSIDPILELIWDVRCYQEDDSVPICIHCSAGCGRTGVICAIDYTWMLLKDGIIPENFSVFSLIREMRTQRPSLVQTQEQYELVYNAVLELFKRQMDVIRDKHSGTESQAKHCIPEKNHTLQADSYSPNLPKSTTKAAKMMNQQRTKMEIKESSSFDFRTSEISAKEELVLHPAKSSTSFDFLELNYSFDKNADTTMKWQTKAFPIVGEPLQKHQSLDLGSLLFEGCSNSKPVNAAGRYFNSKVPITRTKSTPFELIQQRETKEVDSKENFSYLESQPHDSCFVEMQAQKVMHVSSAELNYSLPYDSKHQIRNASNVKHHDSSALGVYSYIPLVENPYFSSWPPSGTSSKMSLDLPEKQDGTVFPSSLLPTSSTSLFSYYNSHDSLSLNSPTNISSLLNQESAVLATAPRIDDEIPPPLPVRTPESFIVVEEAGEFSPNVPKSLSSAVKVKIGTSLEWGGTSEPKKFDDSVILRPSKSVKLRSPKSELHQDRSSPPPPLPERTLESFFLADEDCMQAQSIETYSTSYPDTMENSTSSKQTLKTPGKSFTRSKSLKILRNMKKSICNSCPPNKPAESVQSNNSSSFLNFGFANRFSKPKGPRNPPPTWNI

[10] = biological target: T5, RNA-binding protein pos-1 (Caenorhabditis elegans, UniProt G5EF15); test: inhibitors of POS-1/mex-3 RNA binding, dose response, biochemical, fluorescence polarization (AID 1964);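 note: purified POS-1 fused to maltose binding protein made in E. coli; potency of compounds blocking POS-1 binding to fluorescent RNA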
T5 sequence (G5EF15 whole entry): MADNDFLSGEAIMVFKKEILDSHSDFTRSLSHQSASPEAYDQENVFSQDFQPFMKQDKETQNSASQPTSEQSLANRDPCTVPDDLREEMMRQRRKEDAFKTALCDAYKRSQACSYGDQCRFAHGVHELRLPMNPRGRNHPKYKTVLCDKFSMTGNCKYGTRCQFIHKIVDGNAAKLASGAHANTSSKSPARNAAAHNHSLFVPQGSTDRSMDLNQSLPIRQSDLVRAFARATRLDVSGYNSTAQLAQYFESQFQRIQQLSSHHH

[11] = biological target: T6, Zinc finger protein mex-5 (Caenorhabditis elegans, UniProt Q9XUB2); test: MEX-5/TCR-2 RNA interaction inhibitors, dose response, biochemical, C. elegans, fluorescence polarization (AID 1960)
T6 sequence (Q9XUB2 whole entry): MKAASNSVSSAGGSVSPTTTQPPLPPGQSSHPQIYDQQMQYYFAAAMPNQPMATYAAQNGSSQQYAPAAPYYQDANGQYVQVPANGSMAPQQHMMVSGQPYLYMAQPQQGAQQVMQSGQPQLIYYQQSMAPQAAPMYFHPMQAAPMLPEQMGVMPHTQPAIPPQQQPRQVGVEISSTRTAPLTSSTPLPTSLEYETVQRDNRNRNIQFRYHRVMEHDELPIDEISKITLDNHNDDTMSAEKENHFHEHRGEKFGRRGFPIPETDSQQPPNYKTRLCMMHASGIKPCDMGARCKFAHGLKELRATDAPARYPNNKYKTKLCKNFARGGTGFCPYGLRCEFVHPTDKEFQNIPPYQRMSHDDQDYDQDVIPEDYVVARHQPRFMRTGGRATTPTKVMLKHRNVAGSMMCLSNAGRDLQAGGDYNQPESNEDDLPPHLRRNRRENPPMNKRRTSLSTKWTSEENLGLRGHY

[12] = biological target: T7, Sentrin-specific protease 1 (Homo sapiens, UniProt Q9P0U3); test: potency of human SENP1 inhibitors, dose response, biochemical, kinetic FRET (AID 651697); assay type: functional; conditions: read-out: IC50_Mean
[13] = biological target: T7, Sentrin-specific protease 1; test: Dose response confirmation of small molecule inhibitors of the catalytic domain of the SUMO protease, SENP1 in a FRET assay.; assay type: functional; conditions: read-out: IC50_Mean
[14] = biological target: T8, Rac GTPase-activating protein 1 (Homo sapiens, UniProt Q9H0H5); test: MgcRacGAP GTPase-activating activity inhibitors, confirmation, biochemical, ADP Hunter fluorescence, primary and confirmatory (AID 624330); assay type: functional
T8 sequence (Q9H0H5 whole entry): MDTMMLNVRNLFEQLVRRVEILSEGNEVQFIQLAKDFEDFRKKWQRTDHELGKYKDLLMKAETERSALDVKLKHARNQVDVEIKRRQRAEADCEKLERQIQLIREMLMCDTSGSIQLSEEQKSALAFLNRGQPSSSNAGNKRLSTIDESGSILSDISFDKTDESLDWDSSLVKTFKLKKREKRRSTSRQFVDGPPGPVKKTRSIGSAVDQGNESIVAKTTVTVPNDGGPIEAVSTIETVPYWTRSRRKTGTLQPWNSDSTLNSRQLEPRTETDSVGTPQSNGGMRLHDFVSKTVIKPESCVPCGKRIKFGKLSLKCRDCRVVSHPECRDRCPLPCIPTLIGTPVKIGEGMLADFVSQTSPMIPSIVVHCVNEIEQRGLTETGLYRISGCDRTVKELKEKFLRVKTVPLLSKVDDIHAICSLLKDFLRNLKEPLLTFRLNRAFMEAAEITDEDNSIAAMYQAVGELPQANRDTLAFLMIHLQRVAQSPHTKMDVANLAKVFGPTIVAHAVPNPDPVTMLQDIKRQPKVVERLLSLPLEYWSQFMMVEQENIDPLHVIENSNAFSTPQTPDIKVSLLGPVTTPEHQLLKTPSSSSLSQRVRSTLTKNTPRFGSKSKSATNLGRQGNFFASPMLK

T7 sequence (Q9P0U3 whole entry, the tested form may be a part): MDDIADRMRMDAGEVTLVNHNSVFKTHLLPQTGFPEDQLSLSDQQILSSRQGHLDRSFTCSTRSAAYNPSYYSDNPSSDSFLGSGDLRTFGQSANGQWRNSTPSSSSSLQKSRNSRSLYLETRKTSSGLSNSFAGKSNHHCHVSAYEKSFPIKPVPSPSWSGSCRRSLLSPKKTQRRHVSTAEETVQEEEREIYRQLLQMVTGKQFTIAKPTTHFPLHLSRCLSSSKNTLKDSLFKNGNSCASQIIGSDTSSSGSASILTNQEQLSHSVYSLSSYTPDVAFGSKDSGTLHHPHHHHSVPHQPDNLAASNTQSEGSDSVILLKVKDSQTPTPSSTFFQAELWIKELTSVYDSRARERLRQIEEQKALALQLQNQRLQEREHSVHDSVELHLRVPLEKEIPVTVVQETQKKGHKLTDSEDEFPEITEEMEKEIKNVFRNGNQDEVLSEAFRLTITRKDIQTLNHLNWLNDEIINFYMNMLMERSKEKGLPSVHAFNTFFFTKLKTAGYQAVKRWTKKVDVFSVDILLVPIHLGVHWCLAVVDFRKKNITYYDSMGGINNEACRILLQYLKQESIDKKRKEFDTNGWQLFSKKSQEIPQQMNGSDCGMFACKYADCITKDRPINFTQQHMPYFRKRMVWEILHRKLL
Sequence of Dual specificity protein phosphatase 3 (P51452 whole entry): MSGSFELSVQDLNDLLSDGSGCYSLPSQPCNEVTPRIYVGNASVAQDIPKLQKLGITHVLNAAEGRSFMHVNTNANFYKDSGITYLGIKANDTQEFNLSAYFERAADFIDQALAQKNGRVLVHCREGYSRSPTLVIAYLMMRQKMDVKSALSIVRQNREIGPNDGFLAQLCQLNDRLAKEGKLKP
Sequence of DNA dC->dU-editing enzyme APOBEC-3G (Q9HC16 whole entry): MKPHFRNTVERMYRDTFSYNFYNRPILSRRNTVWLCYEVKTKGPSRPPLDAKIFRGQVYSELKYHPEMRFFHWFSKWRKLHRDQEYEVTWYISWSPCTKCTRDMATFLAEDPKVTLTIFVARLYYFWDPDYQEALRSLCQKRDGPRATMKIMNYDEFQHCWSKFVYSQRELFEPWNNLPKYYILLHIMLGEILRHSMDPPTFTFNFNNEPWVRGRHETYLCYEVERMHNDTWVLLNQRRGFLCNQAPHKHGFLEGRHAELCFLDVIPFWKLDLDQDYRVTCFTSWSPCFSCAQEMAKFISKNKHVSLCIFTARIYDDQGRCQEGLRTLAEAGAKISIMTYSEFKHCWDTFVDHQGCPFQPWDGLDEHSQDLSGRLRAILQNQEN
Sequence of Genome polyprotein (P29990 2492-3391 limits assumed): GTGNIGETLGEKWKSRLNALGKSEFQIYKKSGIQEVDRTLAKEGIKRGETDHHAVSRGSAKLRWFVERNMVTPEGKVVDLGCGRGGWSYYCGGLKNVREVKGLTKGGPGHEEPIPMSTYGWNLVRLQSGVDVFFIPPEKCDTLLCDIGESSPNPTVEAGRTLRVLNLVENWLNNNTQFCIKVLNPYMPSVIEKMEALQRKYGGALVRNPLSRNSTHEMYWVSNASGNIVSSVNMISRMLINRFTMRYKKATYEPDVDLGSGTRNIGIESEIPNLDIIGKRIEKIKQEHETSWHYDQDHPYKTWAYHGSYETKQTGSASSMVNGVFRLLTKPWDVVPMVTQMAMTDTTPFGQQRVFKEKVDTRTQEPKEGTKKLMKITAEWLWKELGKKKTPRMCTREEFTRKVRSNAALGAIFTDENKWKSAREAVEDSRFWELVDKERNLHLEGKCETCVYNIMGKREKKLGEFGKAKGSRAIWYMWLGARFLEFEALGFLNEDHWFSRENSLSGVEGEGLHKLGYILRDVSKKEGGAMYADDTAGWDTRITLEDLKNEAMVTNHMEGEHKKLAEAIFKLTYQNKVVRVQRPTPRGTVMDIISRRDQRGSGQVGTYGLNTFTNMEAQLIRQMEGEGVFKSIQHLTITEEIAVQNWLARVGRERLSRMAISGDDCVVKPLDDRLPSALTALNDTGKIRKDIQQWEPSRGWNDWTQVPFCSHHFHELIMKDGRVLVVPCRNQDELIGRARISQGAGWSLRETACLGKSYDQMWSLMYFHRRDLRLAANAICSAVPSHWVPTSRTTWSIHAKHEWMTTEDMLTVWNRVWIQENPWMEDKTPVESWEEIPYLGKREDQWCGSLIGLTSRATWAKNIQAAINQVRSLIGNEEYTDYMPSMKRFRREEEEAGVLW
Sequence of DNA dC->dU-editing enzyme APOBEC-3A (P31941 whole entry): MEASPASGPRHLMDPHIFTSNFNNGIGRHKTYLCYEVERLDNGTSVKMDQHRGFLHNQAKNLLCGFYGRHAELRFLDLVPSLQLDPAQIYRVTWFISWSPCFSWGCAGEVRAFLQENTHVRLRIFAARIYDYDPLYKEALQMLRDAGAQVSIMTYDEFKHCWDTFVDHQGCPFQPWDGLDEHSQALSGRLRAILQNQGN

Q: Which results are given for `COc1cccc(-c2coc3c(C)c4oc(=O)c(CCC(=O)O)c(C)c4cc23)c1`?
A: EC50 [1]: 2.4 µM (active); EC50 (Streptokinase A): > 150 µM (not active); EC50 (Streptococcus): 13.4 µM (active); CC50 (Vero): > 40 µM (active); IC50 (Genome polyprotein): 40.5 µM (active); AC50 [2]: 98 µM (active); AC50 [3]: 130 µM (active)

Q: With `CCN1CCN(C(=S)c2ccc(Cl)cc2)CC1` as the compound, how does the IC50 [4] read?
A: > 100 µM (inactive)

Q: And the IC50 [5]?
A: 5.06 µM (active)

Q: What about the IC50 [6] of the same compound?
A: 0.318 µM (active)

Q: What about the IC50 [7] of the same compound?
A: 8.91 µM (active)

Q: What about the IC50 [8] of the same compound?
A: 0.341 µM (active)

Q: What about the IC50 [9] of the same compound?
A: 12.8 µM (active)

Q: With `CC1(C)CC2=Nc3ccccc3SC2=C(O)C1` as the compound, how does the EC50 [10] read?
A: 43.9 µM (active)

Q: And the EC50 [11]?
A: 59.3 µM (active)

Q: What about the IC50 [12] of the same compound?
A: 29 µM (inactive)

Q: What about the IC50 [13] of the same compound?
A: 42.4 µM (inactive)

Q: And the IC50 [14]?
A: 22.1 µM (active)
